pIC50: −log10 of the molar value.
Tests used:
human BACE-2 = human BACE-2 (Homo sapiens (Human), UniProt Q9Y5Z0); test: Test 2: Inhibition of Human BACE-2; format: biochemical; conditions: recombinant BACE-2, pH 4.5, fluorescence-quenched substrate
Protocol: Test 2: Inhibition of Human BACE-2
(§1) Recombinant BACE-2 (extracellular domain, expressed in baculovirus and purified using standard methods) at 0.1 to 1 nM concentrations is incubated with the test compound at various concentrations for 1 hour at room temperature in 100 mM acetate buffer, pH 4.5, containing 0.1% CHAPS. Activity was measured using a final concentration of 3 μM of the fluorescence-quenched substrate Q-C(HSO3)-Ile-Asp-Leu-Ala-Val-Leu-Asp-HN—CH2—CH2-Mca, where Q=2-nitro-5-amino benzoic acid and Mca=7-methoxy-4-coumarinyl acetic acid. […] Fluorescence increase was followed for 15 min, in 1 minute's intervals. The fluorescence/time slopes were calculated from duplicate wells and from wells without inhibitor and the IC50 values were calculated using a logistic 4-parameter model.

human BACE-1 = human BACE-1 (Homo sapiens (Human), UniProt P56817); test: Test 1: Inhibition of Human BACE-1; format: biochemical; conditions: recombinant BACE-1, pH 4.5, fluorescence-quenched substrate
human BACE-1, sequence (P56817 46-457): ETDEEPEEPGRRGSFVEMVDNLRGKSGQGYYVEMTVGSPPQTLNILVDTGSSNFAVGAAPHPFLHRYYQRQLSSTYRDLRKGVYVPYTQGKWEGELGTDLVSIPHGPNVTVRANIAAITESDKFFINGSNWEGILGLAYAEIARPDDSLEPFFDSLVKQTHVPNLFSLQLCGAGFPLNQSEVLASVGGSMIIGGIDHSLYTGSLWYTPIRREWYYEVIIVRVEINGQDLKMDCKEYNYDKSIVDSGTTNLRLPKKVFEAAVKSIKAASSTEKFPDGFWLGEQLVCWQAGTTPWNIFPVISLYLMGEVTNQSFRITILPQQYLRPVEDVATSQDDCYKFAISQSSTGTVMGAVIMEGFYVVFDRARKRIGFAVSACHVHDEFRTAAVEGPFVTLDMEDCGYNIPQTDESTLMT
Protocol: Test 1: Inhibition of Human BACE-1
as §1, with “BACE-1” for “BACE-2”

[1] = system: amyloid peptide 1-40 release; test: Test 4: Inhibition of Cellular Release of Amyloid Peptide 1-40; format: cell-based; conditions: Cricetulus griseus; Chinese hamster ovary cells transfected with the human gene for amyloid precursor protein, 24 hours; read-out: Amyloid-β1-40 release IC50
Protocol: Chinese hamster ovary cells are transfected with the human gene for amyloid precursor protein. The cells are plated at a density of 8000 cells/well into 96-well microtiter plates and cultivated for 24 hours in DMEM cell culture medium containing 10% FCS. The test compound is added to the cells at various concentrations, and the cells are cultivated for 24 hours in the presence of the test compound. […] The potency of the compound is calculated from the percentage of inhibition of amyloid peptide release as a function of the test compound concentration.

Measured: pIC50

human BACE-2, sequence (Q9Y5Z0 63-473): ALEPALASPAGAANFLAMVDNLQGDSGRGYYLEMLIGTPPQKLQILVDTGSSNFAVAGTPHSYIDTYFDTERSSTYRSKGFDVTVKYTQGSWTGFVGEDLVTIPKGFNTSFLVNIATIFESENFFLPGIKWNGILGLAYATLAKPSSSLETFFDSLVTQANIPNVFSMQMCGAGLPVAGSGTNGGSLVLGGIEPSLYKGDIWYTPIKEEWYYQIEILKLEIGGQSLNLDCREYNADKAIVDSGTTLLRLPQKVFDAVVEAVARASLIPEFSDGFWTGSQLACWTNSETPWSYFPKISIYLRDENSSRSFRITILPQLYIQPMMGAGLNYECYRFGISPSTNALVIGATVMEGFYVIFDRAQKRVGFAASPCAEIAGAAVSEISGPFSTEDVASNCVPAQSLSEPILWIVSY

C[C@@]1(c2cccc(Nc3n[nH]c4ccccc34)c2)COCC(N)=N1 [[3-((R)-5-amino-3-methyl-3,6-dihydro-2H-[1,4]oxazin-3-yl)-phenyl]-(1H-indazol-3-yl)-amine]
< 5.00: human BACE-2 | human BACE-1 | [1]

Reference: patent publication US9284284B2, “Oxazine derivatives and their use in the treatment of disease” (NOVARTIS AG, priority 2011, dated 2016)
